# Reference: US12077503B2, “Substituted cyclic amides and their use as herbicides” (FMC CORPORATION, priority 2015, dated 2024)
# Assays:
# Assay type in all cases: in vivo
# [1] = test system: Kochia (Kochia scoparia); experiment: Test A preemergence; conditions: Bassia scoparia, pre-emergence, 240 h, 0 to 100 scale where 0 is no effect and 100 is complete control, read-out: Kochia plant response rating
# How it was run: (§1)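 Visual injury, scored on a 0–100 scale relative to untreated controls, was recorded about 10 d after application. Treatments were a preemergence soil spray over planted seeds or a postemergence spray on plants at the one- to two-leaf stage, 2 to 10 cm tall, all in loam soil–sand blend in the greenhouse.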
# [2] = test system: barnyardgrass (Echinochloa crus-galli); experiment: Test A preemergence; conditions: Echinochloa crus-galli, pre-emergence, 240 h, 0 to 100 scale where 0 is no effect and 100 is complete control, read-out: Barnyardgrass plant response rating
# How it was run: as §1
# [3] = test system: giant foxtail (Setaria faberii); experiment: Test A preemergence; conditions: Setaria faberi, pre-emergence, 240 h, 0 to 100 scale where 0 is no effect and 100 is complete control, read-out: Foxtail, Giant plant response rating
# How it was run: as §1
# [4] = test system: pigweed (Amaranthus retroflexus); experiment: Test A preemergence; conditions: Amaranthus retroflexus, pre-emergence, 240 h, 0 to 100 scale where 0 is no effect and 100 is complete control, read-out: Pigweed plant response rating
# [5] = test system: ragweed (common ragweed, Ambrosia elatior); experiment: Test A preemergence; conditions: Ambrosia artemisiifolia, pre-emergence, 240 h, 0 to 100 scale where 0 is no effect and 100 is complete control, read-out: Ragweed plant response rating
# How it was run: as §1
# [6] = test system: ryegrass, Italian (Italian ryegrass, Lolium multiflorum); experiment: Test A preemergence; conditions: Lolium multiflorum, pre-emergence, 240 h, 0 to 100 scale where 0 is no effect and 100 is complete control, read-out: Ryegrass, Italian plant response rating
# How it was run: as §1
# [7] = test system: Galium (catchweed bedstraw, Galium aparine); experiment: Test A postemergence; conditions: Galium, post-emergence, 240 h
# How it was run: as §1
# [8] = test system: Kochia (Kochia scoparia); experiment: Test A postemergence; conditions: Bassia scoparia, post-emergence, 240 h
# How it was run: as §1
# [9] = test system: barnyardgrass (Echinochloa crus-galli); experiment: Test A postemergence; conditions: Echinochloa crus-galli, post-emergence, 240 h
# How it was run: as §1
# [10] = test system: blackgrass (Alopecurus myosuroides); experiment: Test A postemergence; conditions: Alopecurus myosuroides, post-emergence, 240 h
# How it was run: as §1
# [11] = test system: corn (Zea mays); experiment: Test A postemergence; conditions: Zea mays, post-emergence, 240 h
# How it was run: as §1
# [12] = test system: giant foxtail (Setaria faberii); experiment: Test A postemergence; conditions: Setaria faberi, post-emergence, 240 h
# How it was run: as §1
# [13] = test system: pigweed (Amaranthus retroflexus); experiment: Test A postemergence; conditions: Amaranthus retroflexus, post-emergence, 240 h
# How it was run: as §1
# [14] = test system: ragweed (common ragweed, Ambrosia elatior); experiment: Test A postemergence; conditions: Ambrosia artemisiifolia, post-emergence, 240 h
# How it was run: as §1
# [15] = test system: ryegrass, Italian (Italian ryegrass, Lolium multiflorum); experiment: Test A postemergence; conditions: Lolium multiflorum, post-emergence, 240 h
# How it was run: as §1
# [16] = test system: wheat (Triticum aestivum); experiment: Test A postemergence; conditions: Triticum aestivum, post-emergence, 240 h
# How it was run: as §1
# [17] = test system: barnyardgrass (Echinochloa crus-galli); experiment: Test B flooded paddy test; conditions: Echinochloa crus-galli, 250 g ai/ha, Flood; 0 to 100 scale where 0 is no effect and 100 is complete control; read-out: Barnyardgrass plant response rating
# How it was run: (§2)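 Response scored visually against untreated controls, 0 = no effect and 100 = complete control, 13–15 d after treatment in the greenhouse. Compounds added to paddy water held 3 cm above soil surface. Treatment given at 2-leaf stage.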
# [18] = test system: ducksalad (Heteranthera limosa); experiment: Test B flooded paddy test; conditions: Heteranthera limosa, 250 g ai/ha, Flood; 0 to 100 scale where 0 is no effect and 100 is complete control; read-out: Ducksalad plant response rating
# How it was run: as §2
# [19] = test system: rice (Oryra sativa); experiment: Test B flooded paddy test; conditions: Oryza sativa, 250 g ai/ha, Flood; 0 to 100 scale where 0 is no effect and 100 is complete control; read-out: Rice plant response rating
# How it was run: as §2
# [20] = test system: sedge, umbrella (small-flower umbrella sedge, Cyperus difformis); experiment: Test B flooded paddy test; conditions: Cyperus difformis, 250 g ai/ha, Flood; 0 to 100 scale where 0 is no effect and 100 is complete control; read-out: Sedge, Umbrella plant response rating
# How it was run: as §2
# [21] = 125 g ai/ha, preemergence, approx. 10 d
structure (smiles),measurement,setting,value
C=C(C)c1cccc([C@H]2CN(C)C(=O)[C@@H]2C(=O)Nc2cccc(F)c2F)c1 [Compound 1085],pest or weed control at 31 g/ha,"[1]; 31 g ai/ha, Preemergence",0%
same,pest or weed control at 125 g/ha,[1]; [21],0%
same,pest or weed control at 31 g/ha,"[2]; 31 g ai/ha, Preemergence",0%
same,pest or weed control at 125 g/ha,[2]; [21],90%
same,pest or weed control at 31 g/ha,"[3]; 31 g ai/ha, Preemergence",90%
same,pest or weed control at 125 g/ha,[3]; [21],100%
same,pest or weed control at 31 g/ha,"[4]; 31 g ai/ha, Preemergence",0%
same,pest or weed control at 125 g/ha,[4]; [21],0%
same,pest or weed control at 31 g/ha,"[5]; 31 g ai/ha, Preemergence",0%
same,pest or weed control at 125 g/ha,[5]; [21],0%
same,pest or weed control at 31 g/ha,"[6]; 31 g ai/ha, Preemergence",0%
same,pest or weed control at 125 g/ha,[6]; [21],0%
same,pest or weed control at 125 g/ha,"[7]; 125 g ai/ha, postemergence, visual injury on 0 to 100 scale (0 no effect, 100 complete control), approx. 10 d, read-out: Galium plant response rating",60%
same,pest or weed control at 31 g/ha,"[7]; Postemergence, 31 g ai/ha, visual injury after approx. 10 d, 0 to 100 scale, 0 no effect, 100 complete control, read-out: Plant response rating, Galium",40%
same,pest or weed control at 125 g/ha,"[8]; 125 g ai/ha, postemergence, visual injury on 0 to 100 scale (0 no effect, 100 complete control), approx. 10 d, read-out: Kochia plant response rating",20%
same,pest or weed control at 31 g/ha,"[8]; Postemergence, 31 g ai/ha, visual injury after approx. 10 d, 0 to 100 scale, 0 no effect, 100 complete control, read-out: Plant response rating, Kochia",0%
same,pest or weed control at 125 g/ha,"[9]; 125 g ai/ha, postemergence, visual injury on 0 to 100 scale (0 no effect, 100 complete control), approx. 10 d, read-out: Barnyardgrass plant response rating",90%
same,pest or weed control at 31 g/ha,"[9]; Postemergence, 31 g ai/ha, visual injury after approx. 10 d, 0 to 100 scale, 0 no effect, 100 complete control, read-out: Plant response rating, Barnyardgrass",40%
same,pest or weed control at 125 g/ha,"[10]; 125 g ai/ha, postemergence, visual injury on 0 to 100 scale (0 no effect, 100 complete control), approx. 10 d, read-out: Blackgrass plant response rating",20%
same,pest or weed control at 31 g/ha,"[10]; Postemergence, 31 g ai/ha, visual injury after approx. 10 d, 0 to 100 scale, 0 no effect, 100 complete control, read-out: Plant response rating, Blackgrass",0%
same,plant injury at 125 g/ha,"[11]; 125 g ai/ha, postemergence, visual injury on 0 to 100 scale (0 no effect, 100 complete control), approx. 10 d, read-out: Corn plant response rating",20%
same,"Corn plant response rating (crop injury, 0 = no effect, 100 = complete kill) at 31 g/ha","[11]; Postemergence, 31 g ai/ha, visual injury after approx. 10 d, 0 to 100 scale, 0 no effect, 100 complete control",20%
same,pest or weed control at 125 g/ha,"[12]; 125 g ai/ha, postemergence, visual injury on 0 to 100 scale (0 no effect, 100 complete control), approx. 10 d, read-out: Foxtail, Giant plant response rating",60%
same,pest or weed control at 31 g/ha,"[12]; Postemergence, 31 g ai/ha, visual injury after approx. 10 d, 0 to 100 scale, 0 no effect, 100 complete control, read-out: Plant response rating, Foxtail, Giant",0%
same,pest or weed control at 125 g/ha,"[13]; 125 g ai/ha, postemergence, visual injury on 0 to 100 scale (0 no effect, 100 complete control), approx. 10 d, read-out: Pigweed plant response rating",20%
same,pest or weed control at 31 g/ha,"[13]; Postemergence, 31 g ai/ha, visual injury after approx. 10 d, 0 to 100 scale, 0 no effect, 100 complete control, read-out: Plant response rating, Pigweed",0%
same,pest or weed control at 125 g/ha,"[14]; 125 g ai/ha, postemergence, visual injury on 0 to 100 scale (0 no effect, 100 complete control), approx. 10 d, read-out: Ragweed plant response rating",0%
same,pest or weed control at 31 g/ha,"[14]; Postemergence, 31 g ai/ha, visual injury after approx. 10 d, 0 to 100 scale, 0 no effect, 100 complete control, read-out: Plant response rating, Ragweed",0%
same,pest or weed control at 125 g/ha,"[15]; 125 g ai/ha, postemergence, visual injury on 0 to 100 scale (0 no effect, 100 complete control), approx. 10 d, read-out: Ryegrass, Italian plant response rating",20%
same,pest or weed control at 31 g/ha,"[15]; Postemergence, 31 g ai/ha, visual injury after approx. 10 d, 0 to 100 scale, 0 no effect, 100 complete control, read-out: Plant response rating, Ryegrass, Italian",0%
same,plant injury at 125 g/ha,"[16]; 125 g ai/ha, postemergence, visual injury on 0 to 100 scale (0 no effect, 100 complete control), approx. 10 d, read-out: Wheat plant response rating",20%
same,plant injury at 31 g/ha,"[16]; Postemergence, 31 g ai/ha, visual injury after approx. 10 d, 0 to 100 scale, 0 no effect, 100 complete control, read-out: Plant response rating, Wheat",0%
same,pest or weed control at 250 g/ha,[17],60%
same,pest or weed control at 250 g/ha,[18],30%
same,pest or weed control at 250 g/ha,[19],25%
same,pest or weed control at 250 g/ha,[20],0%
